Values after ≈ are worked out from the molar mass of the structure shown. Like-named read-outs stand apart in the source and are kept apart here.
Experiments:
[1] = Distribution coefficient estimation using chromatography, gLogD (Monash); assay type: physicochemical; settings: gradient HPLC retention against standard compounds, pH 7.4
Excerpt: Partition coefficient values (LogD) of the test compounds were estimated at pH 7.4 by the correlation of their chromatographic retention properties against the characteristics of a series of standard compounds with known partition coefficient values. The method employed is a gradient HPLC-based derivation of the method developed by Lombardo.[42] […]
c) Distribution Coefficient Estimation using Chromatography (gLogDpH)
Partition coefficient values (LogD) of the test compounds were estimated at pH 7.4 by correlation of their
chromatographic retention properties against the characteristics of a series of standard compounds with known
partition coefficient values. […]
(§1) In Vitro Intrinsic Clearance […]
(§2) Experimental results are tabulated on the following page(s).
(§3) (1 picture or pasted object on this page, not shown here)

[2] = tested on: Staphylococcus aureus ATCC 43300 MRSA; test: CO-ADD antibacterial assay (growth inhibition, MIC), MRSA; assay type: cell-based; settings: read-out: MRSA MIC (CO-ADD)
Protocol: Hit Confirmation of active compounds by whole cell growth inhibition assays was conducted as an 8-point dose response to determine the Minimum Inhibitory Concentration (MIC), in duplicate (n=2). The inhibition of growth is measured against those microorganisms that […]
Included in the Hit Confirmation were 5 bacteria: Escherichia coli, Klebsiella pneumoniae, Acinetobacter baumannii, Pseudomonas aeruginosa and Staphylococcus aureus, and 2 fungi Candida albicans and Cryptococcus neoformans. […]
Assay Parameters Bacteria Fungi HEK293 Haemolysis […]
Duplicate (n=2) Duplicate (n=2) Duplicate (n=2) Duplicate (n=2)
QC Control MIC: Control MIC: Control CC50: Control HC10:
Non-Binding Non-Binding TC, 384-well Polypropylene
Plates Surface (NBS), Surface (NBS), black wall/clear 384-well and 384-well plate 384-well plate bottom polystyrene 384-
Cation-adjusted Yeast Nitrogen DMEM
Media Mueller Hinton Base supplemented 0.9% NaCl
Hit Confirmation outcomes are detailed in individual Project reports, personalised for each Project Submission for each CO-ADD user.
Please see your data sheet with file extension P0XXX_HC_data.xlsx, for example CO-ADD Project P0100, P0100_HC_data.xlsx
Study: HC_data ID: HC-Procedures & Materials
Date: Last updated June 2018 Confidential Page 3 of 11
as §3
Samples were provided by the collaborator and stored frozen at -20 °C. Samples were prepared in DMSO and water to a final testing concentration of 32 µg/mL or 20 µM (unless otherwise indicated in the data sheet) and serially diluted 1:2 fold for 8 times. Each sample concentration was prepared in 384-well plates, non-binding surface plate (NBS; Corning 3640) for each bacterial/fungal strain, tissue-culture treated (TC-treated; Corning 3712/3764) black for mammalian cell types and polypropylene 384-well (PP; Corning 3657) for haemolysis assays, all in duplicate (n=2), and keeping the final DMSO concentration to a maximum of 0.5%. All the sample preparation was done using liquid handling robots. […]
detailed in the Data sheet for the individual Project.
All bacteria were cultured in Cation-adjusted Mueller Hinton broth (CAMHB) at 37 °C overnight. A sample of each culture was then diluted 40-fold in fresh broth and incubated at 37 °C for 1.5-3 h. The resultant mid-log phase cultures were diluted (CFU/mL measured by OD600), then added to each well of the compound containing plates, giving a cell density of 5×10^5 CFU/mL and a total volume of 50 µL. All the plates were covered and incubated at 37 °C for 18 h without shaking.
Inhibition of bacterial growth was determined measuring absorbance at 600 nm (OD600), using a Tecan M1000 Pro monochromator plate reader. The percentage of growth inhibition was calculated for each well, using the negative control (media only) and positive control (bacteria without inhibitors) on the same plate as references.
The percentage of growth inhibition was calculated for each well, using the negative control (media only) and positive control (bacteria without inhibitors) on the same plate. The MIC […]
by an inhibition ≥ 80%. In addition, the maximal percentage of growth inhibition is reported as DMax, indicating any compounds with partial activity.
Date: Last updated June 2018 Confidential Page 5 of 11
Material Code Brand/Supplier Cat No.
Compound preparation plate, Polypropylene PP Corning 3364
Assay Plates – Antimicrobial
Non-binding surface NBS 384w Corning 3640
Assay Plates – Cytotoxicity
Tissue culture treated Black/Clear bottom 384w Corning 3712
Assay Plates - Haemolysis PP-Haem Corning 3657 […]
Growth media - bacteria CAMHB Bacto Laboratories 212322
Culture agar - fungi YPD Becton Dickinson 242720
Growth media - fungi YNB Becton Dickinson 233520
Resazurin Sigma-Aldrich R7017
Dulbecco's Modified Eagle Medium DMEM Life Technologies 11995-073
Foetal Bovine Serum FBS Bovogen FFBS-500
0.9% NaCl Saline Baxter AHF7124
Sample Name Sample ID MW Conc. Solvent Source […]

[3] = In vitro metabolic stability, human liver microsomes (Monash); assay type: in vitro ADME; settings: Monash; for microsomal CLint at 1 µM: read-out: HLM Clint (Monash); for half-life at 1 µM: read-out: HLM t1/2 (Monash)
Protocol: (§4) The metabolic stability assay was performed by incubating each test compound with a suspension of liver microsomes (0.4 mg/mL protein, 1 μM substrate, 37 °C). Microsomes were purchased from XenoTech. The metabolic reaction was initiated by the addition of an NADPH-regenerating system and quenched at various time points over a 60 min incubation by the addition of acetonitrile containing metolazone as an internal standard. Control samples (containing no NADPH) were included (quenched at 2, 30, and 60 min) to monitor for potential degradation in the absence of cofactor. […]
(§5) d) In Vitro Metabolic Stability
(§6) The metabolic stability assay was performed by incubating each test compound with a suspension of liver
(§7) microsomes (0.4 mg/mL, 37°C). The metabolic reaction was initiated by the addition of an NADPH-regenerating
(§8) system and quenched at various time points over a 60 minute incubation by the addition of acetonitrile containing
(§9) metolazone as internal standard. Control samples (containing no NADPH) were included (quenched at 2, 30 and 60
(§10) minutes) to monitor for potential degradation in the absence of cofactor.
(§11) The human liver microsomes used in this experiment were supplied by XenoTech, lot # 1710084.The rat liver
(§12) microsomes used in this experiment were supplied by XenoTech, lot # 1610290. Microsomal incubations were
(§13) performed at a substrate concentration of 1 µM.
(§14) Data analysis and interpretation:
(§15) Substrate depletion as a function of time was analysed as described by Obach (1999) Drug Metab. Dispos., 27:1350-
(§16) 1359. Intrinsic clearance (CLint) values were classified at the limits of low and high clearance bands based on a
(§17) rearrangement of the well stirred model of hepatic elimination. It should be noted that the potential impact of
(§18) compound binding (either in microsomes or in blood) on the relationship between in vitro intrinsic clearance and
(§19) hepatic clearance in vivo has not been accounted for in these studies.
(§20) In Vitro Intrinsic Clearance
(§21) Species (µL/min/mg protein)
(§22) Low Clearance High Clearance
as §2, §3

[4] = In vitro metabolic stability, rat liver microsomes (Monash); assay type: in vitro ADME; settings: Monash; for microsomal CLint at 1 µM: read-out: RLM Clint (Monash); for half-life at 1 µM: read-out: RLM t1/2 (Monash)
Protocol: as §4, §5, §6, §7, §8, §9, §10, §11, §12, §13, §14, §15, §16, §17, §18, §19, §20, §21, §22, §2, §3

[5] = Mouse liver microsome (MLM) metabolic stability (UNC); assay type: in vitro ADME
Excerpt: Supplement id3c00286_si_002.xlsx, sheet "Series 2 Data" | column: MLM Clint (mL/min/kg) (UNC); MLM t1/2 (min) (UNC); MLM E (UNC)

[6] = Kinetic solubility estimation using nephelometry (Monash); assay type: physicochemical; settings: kinetic from dmso stock
Protocol: Compound in DMSO was spiked into either pH 6.5 phosphate buffer or 0.01 M HCl (approximately pH 2.0) with the final DMSO concentration being 1%. […]
b) Kinetic Solubility Estimation using Nephelometry (SolpH)
Compound in DMSO was spiked into either pH 6.5 phosphate buffer or 0.01 M HCl (approx pH 2.0) with the final
DMSO concentration being 1%. After 30 minutes had elapsed, samples were then analysed via Nephelometry to
determine a solubility range. See Bevan and Lloyd (2000) Anal Chem, 72:1781-1787. […]
as §1, §2, §3

[7] = tested on: Staphylococcus aureus NCTC 13373 (mecA-positive; methicillin-resistant); test: In vitro antibacterial activity, MIC (UCL School of Pharmacy assay), MRSA; assay type: cell-based; settings: Staphylococcus aureus, UCL; read-out: MRSA MIC (UCL)
Procedure, shortened: (§23)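 Each organism was taken from overnight tryptone soya agar, suspended in PBS at A600 0.1, diluted 1:100 in isosensitest broth and added to serially diluted compound (32 to 0.03 μg/mL).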

THP1 = test: Toxicity against THP1; assay type: cell-based; settings: THP1 cells
Excerpt: Supplement id3c00286_si_002.xlsx, sheet "Series 2 Data" | column: THP1 TC50 (uM)

[8] = tested on: Enterococcus faecalis ATCC 51299 (vanA-positive; vancomycin-resistant); test: In vitro antibacterial activity, MIC (UCL), VRE; assay type: cell-based; settings: read-out: VRE MIC (UCL)
Procedure, shortened: as §23

[9] = Human plasma protein binding (PPB); assay type: in vitro ADME; settings: human plasma, NEU; for fraction unbound: human, plasma, read-out: Human PPB (NEU) (converted)
[10] = tested on: MRC-5SV2 (human lung fibroblast cell line); test: Toxicity against MRC-5SV2; assay type: cell-based; settings: MRC5 cells
Protocol: (§24) ADME and toxicity for compounds were measured according to procedures outlined in the manuscript submitted in parallel to this one;2 other procedures were used for those compounds analysed by Monash University (in vitro ADME) or UCL (toxicity), both described in the main

[11] = Human liver microsome intrinsic clearance; assay type: in vitro ADME; settings: human liver microsomes, NEU; for microsomal CLint: read-out: HLM CLint (NEU)
[12] = Rat hepatocyte intrinsic clearance; assay type: in vitro ADME; settings: rat hepatocytes, NEU; for hepatocyte CLint: read-out: Rat Hep CLint (NEU)
U2OS = test: Toxicity against U2OS; assay type: cell-based; settings: U2OS cells
Excerpt: Supplement id3c00286_si_002.xlsx, sheet "Series 2 Data" | column: U2OS TC50 (uM)

Aqueous solubility = assay type: physicochemical; settings: NEU; for solubility: thermodynamic from solid, read-out: Aqueous Solubility (NEU)
[13] = tested on: PMM (primary mouse macrophages); test: Toxicity against PMM; assay type: cell-based; settings: PMM
Protocol: as §24

LogD7.4 (Chrom Log D) = assay type: physicochemical; settings: chromatographic system (Chrom Log D); pH 7.4, NEU; read-out: LogD 7.4 (NEU)
[14] = 0.01 M HCl, simulated gastric fluid, pH 2.0, read-out: Sol (pH 2.0) (Monash)
[15] = pH 6.5 phosphate buffer, pH 6.5, aqueous buffer, read-out: Sol (pH 6.5) (Monash)

SMILES | chromatographic logD [1] | MIC [2] | microsomal CLint at 1 µM [3] | half-life at 1 µM [3] | microsomal CLint at 1 µM [4] | half-life at 1 µM [4] | solubility kinetic at 30 min [6, 14] | solubility kinetic at 30 min [6, 15] | MIC [7] | THP1 TC50 (THP1) | MIC [8] | MRC5 TC50 [10] | microsomal CLint [11] | hepatocyte CLint [12] | U2OS TC50 (U2OS) | solubility (Aqueous solubility) | PMM TC50 [13] | fraction unbound [9] | chromatographic logD (LogD7.4 (Chrom Log D)) | other results
c1ccc(-c2nc3n(c2-c2ccc4c(c2)OCO4)CCS3)nc1 [OSA_000813] | 1.6 | 32 µg/mL (≈ 99 µM) | 37 µL/min/mg | 47 min | 74 µL/min/mg | 23 min | 25 to 50 µg/mL (≈ 77.3 to 155 µM) | 12.5 to 25 µg/mL (≈ 38.7 to 77.3 µM) |  |  |  |  |  |  |  |  |  |  |  | MLM E (UNC) ([5]; mouse liver microsomes): 0.873; CLint scaled ([5]; mouse, liver microsomes): 619 mL/min/kg; half-life ([5]; mouse, liver microsomes, read-out: MLM t1/2 (UNC)): 9.08 min
c1ccc(-c2nc3ccccn3c2-c2ccc3c(c2)OCO3)nc1 [OSA_000814] | 1.8 | 32 µg/mL (≈ 101 µM) | 47 µL/min/mg | 37 min | 99 µL/min/mg | 18 min | > 100 µg/mL | 25 to 50 µg/mL (≈ 79.3 to 159 µM) |  |  |  |  |  |  |  |  |  |  |  | 
COc1ccn2c(Nc3ccccc3F)c(-c3cnn(C)c3)nc2c1 [OSA_000855] |  |  |  |  |  |  |  |  | > 32 µg/mL | 50 µM | > 32 µg/mL | 64 µM | < 3 µL/min/mg | 82.3 µL/min/1e6 cells | 50 µM | 22 µM (≈ 7.42 µg/mL) | 64 µM |  |  | Human PPB (NEU) [9]: Low recovery,Unstable in plasma
COc1ccn2c(-c3ccc(F)cc3)c(-c3ccccn3)nc2c1 [OSA_000858] |  |  |  |  |  |  |  |  | 16 µg/mL (≈ 50.1 µM) | 7.63 µM | > 32 µg/mL | 3.62 µM | > 300 µL/min/mg | 25.1 µL/min/1e6 cells | 1.28 µM | 85 µM (≈ 27.1 µg/mL) | 8 µM | 0.054 | 2.9 | 
Fc1ccc(-c2c(-c3ccccn3)nc3ccccn23)cc1 [OSA_000859] |  |  |  |  |  |  |  |  | 32 µg/mL (≈ 111 µM) | 17 µM | > 32 µg/mL | 10.3 µM |  |  | 4.54 µM |  | 32 µM |  | 3 | HLM CLint (NEU) [11]: 168 uL/min/mg protein; Rat Hep CLint (NEU) [12]: 49.8 uL/min/10x6 cells; Aqueous Solubility (NEU) (Aqueous solubility): 178 µM
COc1ccn2c(-c3ccccc3)c(-c3ccccn3)nc2c1 [OSA_000860] |  |  |  |  |  |  |  |  | 8 µg/mL (≈ 26.5 µM) | 5.01 µM | 32 µg/mL (≈ 106 µM) | 3.92 µM | 224 µL/min/mg | 23.9 µL/min/1e6 cells | 0.73 µM | 79 µM (≈ 23.8 µg/mL) | 8 µM | 0.028 | 3.1 | 

Source: article PMC10714399, “Open Source Antibiotics: Simple Diarylimidazoles Are Potent against Methicillin-Resistant Staphylococcus aureus” (ACS Infectious Diseases, 2023)
